Source: US20160074517A1, “AQUEOUS FORMULATIONS OF SPARINGLY WATER-SOLUBLE ACTIVE INGREDIENTS COMPRISING AS SOLUBILIZER A MIXTURE OF POLOXAMERS DIFFERING IN HYDROPHOBICITY” (BASF SE, priority 2013, published 2016)

Experiment: Solubilization of sparingly water-soluble active ingredient in aqueous poloxamer formulations, quantified by UV/Vis spectroscopy
Format: physicochemical
Procedure: General procedure for the preparation of the aqueous formulations: […]
The data in % by weight in the tables below refer to the total amount of the aqueous formulation.
Components A and B in the amounts stated below in each case and also 2% by weight of active ingredient were dissolved in water (at 20° C. and ambient pressure).
The sample was stirred at 20° C. for 24 h (magnetic stirrer 500 rpm) and then filtered through an injection filter (PVDF filter membrane, 0.45 μm pore size).
The active ingredient quantification takes place via UV/Vis spectroscopy. For this, the samples were diluted with an organic solvent in which the active ingredient dissolves to at least 10 000 ppm (1% by weight) (ethanol).
By contrast, the solubilizing effect of a 5% strength by weight aqueous solution of PE10400 as individual component was stipulated as standard with the value 1 and the solubilizing effect of the mixtures was determined against this standard.
The solubilizing effect of a 5% strength by weight aqueous solution of PE 10400 was again selected as standard 1.

solubility in a 5% strength by weight aqueous solution of PE 4300 (component B) (5% by weight PE 4300 in water, 20° C., 24 h stirring, filtered 0.45 μm): 28 ppm
solubility in a 5% strength by weight aqueous solution of PE 6200 (component B) (5% by weight PE 6200 in water, 20° C., 24 h stirring, filtered 0.45 μm): 31 ppm
solubility in a 5% strength by weight aqueous solution of PE 10400 (component A) (5% by weight PE 10400 in water, 20° C., 24 h stirring, filtered 0.45 μm): 710 ppm
solubility in pure water (pure water): 5 ppm
Structure (SMILES): Cn1cc(C(=O)Nc2ccccc2-c2cc(F)c(F)c(F)c2)c(C(F)F)n1 [fluxapyroxad]
